Data as given in ChEMBL document CHEMBL5143747, “Discovery and Optimization of Triazolopyrimidinone Derivatives as Selective NLRP3 Inflammasome Inhibitors” (ACS Med Chem Lett, 2022).
Values after ≈ are worked out from the molar mass of the structure shown.

Legend:
[1] = target: T1, NACHT, LRR and PYD domains-containing protein 3 (Homo sapiens, UniProt Q96P20); experiment: Inhibition of NLRP3 inflammasome in LPS-pretreated PBMC (unknown origin) assessed as reduction in IL-1beta release pretreated for 30 mins followed by ATP stimulated and measured after 1 hr by ELISA; format: cell-based
[2] = Thermodynamic solubility of compound in pH 7.4 phosphate buffer incubated for 24 hrs under shaking condition by UPLC analysis; format: physicochemical; conditions: read-out: Therm_solubility
[3] = Permeability of compound in pH 7.4 phosphate buffered saline at 10 uM measured after 4 hrs by PAMPA; format: ADME; conditions: read-out: permeability
[4] = Protein binding in rat plasma; format: ADME, cell-free; conditions: read-out: PPB (converted)
[5] = Inhibition of LPS-stimulated IL-6 release in human PBMC measured after 4 hrs by ELISA; format: toxicity, cell-based
[6] = Inhibition of LPS-stimulated TNF-alpha release in human PBMC measured after 4 hrs by ELISA; format: toxicity, cell-based
[7] = Protein binding in mouse plasma; format: ADME, cell-free; conditions: read-out: PPB (converted)
[8] = Protein binding in human plasma; format: ADME, cell-free; conditions: read-out: PPB (converted)
[9] = target: T1, NACHT, LRR and PYD domains-containing protein 3; experiment: Inhibition of NLRP3 inflammasome in LPS-pretreated PBMC (unknown origin) assessed as reduction in IL-1beta release at 40 uM pretreated for 30 mins followed by ATP stimulated and measured after 1 hr by ELISA relative to control; format: cell-based; conditions: time 90.0 min
[10] = target: T1, NACHT, LRR and PYD domains-containing protein 3; experiment: Inhibition of NLRP3 inflammasome in LPS-pretreated human whole blood assessed as reduction in IL-1beta release pretreated for 30 mins followed by ATP stimulated and measured after 1 hr by HTRF assay; format: tissue-based
[11] = target: T1, NACHT, LRR and PYD domains-containing protein 3; experiment: Inhibition of NLRP3 inflammasome in LPS-pretreated human THP1-ASC-GFP cells assessed as reduction in speck positive cells measured after 30 mins in presence of caspase inhibitor zVAD-FMK by Hoechst 33342 staining based confocal microscopy; format: cell-based

T1 sequence (Q96P20 whole entry, the tested form may be a part): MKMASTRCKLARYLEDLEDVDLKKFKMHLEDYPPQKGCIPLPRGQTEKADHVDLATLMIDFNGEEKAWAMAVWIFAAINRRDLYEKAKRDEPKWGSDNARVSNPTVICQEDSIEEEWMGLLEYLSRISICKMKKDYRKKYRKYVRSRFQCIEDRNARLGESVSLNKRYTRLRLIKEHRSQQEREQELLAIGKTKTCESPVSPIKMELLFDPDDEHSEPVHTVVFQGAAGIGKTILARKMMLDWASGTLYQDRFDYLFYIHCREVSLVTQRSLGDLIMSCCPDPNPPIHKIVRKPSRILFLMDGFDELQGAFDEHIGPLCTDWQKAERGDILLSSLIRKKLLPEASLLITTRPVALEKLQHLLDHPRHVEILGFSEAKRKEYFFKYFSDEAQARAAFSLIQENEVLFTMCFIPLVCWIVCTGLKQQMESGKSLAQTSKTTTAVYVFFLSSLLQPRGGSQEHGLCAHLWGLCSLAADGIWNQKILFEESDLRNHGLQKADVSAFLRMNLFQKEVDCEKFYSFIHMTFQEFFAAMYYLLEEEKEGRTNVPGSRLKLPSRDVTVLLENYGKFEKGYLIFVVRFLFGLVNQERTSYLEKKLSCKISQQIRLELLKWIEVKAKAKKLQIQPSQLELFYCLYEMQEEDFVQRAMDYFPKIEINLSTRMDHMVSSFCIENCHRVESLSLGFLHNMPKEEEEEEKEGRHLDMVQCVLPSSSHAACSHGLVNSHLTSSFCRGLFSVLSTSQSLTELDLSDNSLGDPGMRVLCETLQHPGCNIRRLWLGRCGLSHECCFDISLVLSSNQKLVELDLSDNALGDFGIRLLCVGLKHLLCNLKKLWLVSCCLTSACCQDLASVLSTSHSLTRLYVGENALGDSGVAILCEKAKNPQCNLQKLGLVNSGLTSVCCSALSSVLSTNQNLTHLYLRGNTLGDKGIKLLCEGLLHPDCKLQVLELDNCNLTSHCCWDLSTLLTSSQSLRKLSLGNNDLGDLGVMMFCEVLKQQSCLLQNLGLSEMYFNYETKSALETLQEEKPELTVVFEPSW

SMILES | IC50 ([1]; read-out: IC50) | further results
O=c1cc(Cc2ccccc2F)[nH]c2nc(Nc3c4c(cc5c3CCC5)CCC4)nn12 | 3.7 µM | –
Cn1cnc(Cc2cc(=O)n3nc(Nc4c5c(cc6c4CCC6)CCC5)nc3[nH]2)c1 | 5.5 µM | –
S=c1cc(Cc2ccccn2)[nH]c2nc(Nc3c4c(cc5c3CCC5)CCC4)nn12 | – | solubility thermodynamic at 24 h [2]: 1500 µM (≈ 622 µg/mL); Papp at 4 h, 10 µM [3]: < 0.018 ×10⁻⁶ cm/s; fraction unbound [4]: 0.015; IC50 [5]: > 40 µM; IC50 [6]: > 40 µM; fraction unbound [7]: 0.004; fraction unbound [8]: 0.019
COCCc1cc(=O)n2nc(Nc3c4c(cc5c3CCC5)CCC4)nc2[nH]1 | 2.8 µM | –
CN1CCN(Cc2cc(=O)n3nc(Nc4c5c(cc6c4CCC6)CCC5)nc3[nH]2)CC1 | > 40 µM | –
O=c1cc[nH]c2nc(Nc3c4c(cc5c3CCC5)CCC4)nn12 | – | inhibition [9]: 77%
N#Cc1ccccc1Cc1cc(=O)n2nc(Nc3c4c(cc5c3CCC5)CCC4)nc2[nH]1 | – | IC50 ([1]; pbmc): Nd(Insoluble)
O=c1cc(CC2COCCN2)[nH]c2nc(Nc3c4c(cc5c3CCC5)CCC4)nn12 (stereo not drawn) | 5.4 µM | –
Cn1nccc1Cc1cc(=O)n2nc(Nc3c4c(cc5c3CCC5)CCC4)nc2[nH]1 | 2 µM | –
O=c1cc(Cc2ccccc2)[nH]c2nc(Nc3c4c(cc5c3CCC5)CCC4)nn12 | 1.8 µM | –
S=c1cc(CC2CCCCO2)[nH]c2nc(Nc3c4c(cc5c3CCC5)CCC4)nn12 (stereo not drawn) | – | solubility thermodynamic at 24 h [2]: 730 µM (≈ 308 µg/mL); Papp at 4 h, 10 µM [3]: < 0.0004 ×10⁻⁶ cm/s; fraction unbound [4]: 0.002; IC50 [5]: > 20 µM; IC50 [6]: > 20 µM; fraction unbound [7]: 0.004; fraction unbound [8]: 0.001
O=c1cc(C2CCCNC2)[nH]c2nc(Nc3c4c(cc5c3CCC5)CCC4)nn12 (stereo not drawn) | > 40 µM | –
O=c1cc(Cc2cccnc2)[nH]c2nc(Nc3c4c(cc5c3CCC5)CCC4)nn12 | 3.4 µM | –
COc1ccc(Cc2cc(=O)n3nc(Nc4c5c(cc6c4CCC6)CCC5)nc3[nH]2)cc1 | 3 µM | –
O=c1cc(CC2CCOCC2)[nH]c2nc(Nc3c4c(cc5c3CCC5)CCC4)nn12 | 3.4 µM | –
CN1CCOC(Cc2cc(=O)n3nc(Nc4c5c(cc6c4CCC6)CCC5)nc3[nH]2)C1 (stereo not drawn) | 8.8 µM | –
N#Cc1ccc(Cc2cc(=O)n3nc(Nc4c5c(cc6c4CCC6)CCC5)nc3[nH]2)cc1 | 1.6 µM | –
Cc1[nH]c2nc(Nc3c4c(cc5c3CCC5)CCC4)nn2c(=O)c1C#N | > 40 µM | –
O=c1cc(Cc2ccccn2)[nH]c2nc(Nc3c4c(cc5c3CCC5)CCC4)nn12 | – | solubility thermodynamic at 24 h [2]: 2.4 µM (≈ 0.956 µg/mL); Papp at 4 h, 10 µM [3]: < 0.018 ×10⁻⁶ cm/s; IC50 [5]: > 40 µM; IC50 [6]: > 40 µM; fraction unbound [8]: 0.002
Cc1cc2[nH]c(Nc3c4c(cc5c3CCC5)CCC4)nn2c(=O)n1 | > 40 µM | –
CCc1cc(=O)n2nc(Nc3c4c(cc5c3CCC5)CCC4)nc2[nH]1 | 8.7 µM | –
Cc1cc(=O)n2nc(Nc3c4c(cc5c3CCC5)CCC4)nc2n1C | > 40 µM | –
Cc1ccccc1Cc1cc(=O)n2nc(Nc3c4c(cc5c3CCC5)CCC4)nc2[nH]1 | 4 µM | –
O=c1cc(C2CCOCC2)[nH]c2nc(Nc3c4c(cc5c3CCC5)CCC4)nn12 | 6.3 µM | –
O=c1cc(Cc2cccc(Cl)c2)[nH]c2nc(Nc3c4c(cc5c3CCC5)CCC4)nn12 | 2.8 µM | –

SMILES | IC50 ([1]; read-out: IC50) | further results
COc1c(C)[nH]c2nc(Nc3c4c(cc5c3CCC5)CCC4)nn2c1=O | > 40 µM | –
Cc1[nH]c2nc(Nc3c4c(cc5c3CCC5)CCC4)nn2c(=O)c1Cc1ccccc1 | > 40 µM | –
O=c1cc(Cc2ccccc2Cl)[nH]c2nc(Nc3c4c(cc5c3CCC5)CCC4)nn12 | – | IC50 ([1]; pbmc): Nd(Insoluble)
Cc1ccn2nc(Nc3c4c(cc5c3CCC5)CCC4)nc2n1 | > 40 µM | –
CN1CCOCC1Cc1cc(=O)n2nc(Nc3c4c(cc5c3CCC5)CCC4)nc2[nH]1 (stereo not drawn) | 6 µM | –
O=c1cc(Cc2ncccn2)[nH]c2nc(Nc3c4c(cc5c3CCC5)CCC4)nn12 | 1.7 µM | –
O=c1cc(CC2CCOC2)[nH]c2nc(Nc3c4c(cc5c3CCC5)CCC4)nn12 (stereo not drawn) | 5 µM | –
Cc1c[nH]c2nc(Nc3c4c(cc5c3CCC5)CCC4)nn2c1=O | > 40 µM | –
Cn1cc(Cc2cc(=O)n3nc(Nc4c5c(cc6c4CCC6)CCC5)nc3[nH]2)cn1 | 4.9 µM | –
Cn1cncc1Cc1cc(=O)n2nc(Nc3c4c(cc5c3CCC5)CCC4)nc2[nH]1 | 16 µM | –
Cn1ccc(Cc2cc(=O)n3nc(Nc4c5c(cc6c4CCC6)CCC5)nc3[nH]2)n1 | 1.8 µM | –
Cc1[nH]c2nc(Nc3c4c(cc5c3CCC5)CCC4)nn2c(=O)c1C | > 40 µM | –
CN1CCC(c2cc(=O)n3nc(Nc4c5c(cc6c4CCC6)CCC5)nc3[nH]2)CC1 | > 40 µM | –
O=c1cc(CC2CCCCC2)[nH]c2nc(Nc3c4c(cc5c3CCC5)CCC4)nn12 | 4.5 µM | –
O=c1cc(CCc2ccccc2)[nH]c2nc(Nc3c4c(cc5c3CCC5)CCC4)nn12 | 3.4 µM | –
CN1CCCC(c2cc(=O)n3nc(Nc4c5c(cc6c4CCC6)CCC5)nc3[nH]2)C1 (stereo not drawn) | 4.9 µM | –
O=c1cc(CN2CCOCC2)[nH]c2nc(Nc3c4c(cc5c3CCC5)CCC4)nn12 | 7.8 µM | –
Cc1cc(=O)n2nc(Nc3c4c(cc5c3CCC5)CCC4)cc2[nH]1 | – | inhibition [9]: 57%
O=c1cc(Cc2ccc(Cl)cc2)[nH]c2nc(Nc3c4c(cc5c3CCC5)CCC4)nn12 | 10 µM | –
N#Cc1cccc(Cc2cc(=O)n3nc(Nc4c5c(cc6c4CCC6)CCC5)nc3[nH]2)c1 | 2.4 µM | –
O=c1cc(Cc2ccncc2)[nH]c2nc(Nc3c4c(cc5c3CCC5)CCC4)nn12 | 5.8 µM | –
Cc1cc(=O)n2nc(Nc3c4c(cc5c3CCC5)CCC4)nc2[nH]1 | – | inhibition [9]: 70%
O=c1cc(C2CCNCC2)[nH]c2nc(Nc3c4c(cc5c3CCC5)CCC4)nn12 | > 40 µM | –
O=c1cc(CC2CCCCO2)[nH]c2nc(Nc3c4c(cc5c3CCC5)CCC4)nn12 (stereo not drawn) | 1.9 µM | solubility thermodynamic at 24 h [2]: 24 µM (≈ 9.73 µg/mL); IC50 [10]: > 40 µM; Papp at 4 h, 10 µM [3]: 0.038 ×10⁻⁶ cm/s; IC50 [11]: 1.3 µM; IC50 [5]: > 40 µM; IC50 [6]: > 40 µM; fraction unbound [7]: 0.002; fraction unbound [8]: 0.001
